17 molecules from US9096549B2, “Selective HDAC3 inhibitors” (Acetylon Pharmaceuticals, Inc., priority 2013, dated 2015) can be followed below.

What all share (type): biochemical
Common to all, as to conditions: 24 hours pre-incubation with enzyme; tripeptide substrate 3 at Km

For assay [1], the target named is HDAC2 (Homo sapiens (Human), UniProt Q92769). The experiment in a line: HDAC enzyme assay, HDAC2. How it is done: (§1) Compounds for testing were diluted in DMSO to 50 fold the final concentration and a ten point three fold dilution series was made. The compounds were diluted in assay buffer (50 mM HEPES, pH 7.4, 100 mM KCl, 0.001% Tween-20, 0.05% BSA, […] tris(2-carboxyethyl)phosphine) to 6 fold their final concentration. The HDAC enzymes (purchased from BPS Biosciences) were diluted to 1.5 fold their final concentration in assay buffer and pre-incubated with the compounds for 24 hours prior to addition of the substrate.
(§2) The substrate tripeptide substrate 3 (synthesized in house) for each enzyme was equal to the Km as determined by a substrate titration curve. The substrates were diluted in assay buffer at 6× their final concentration with 0.3 μM sequencing grade trypsin (Sigma). The substrate/trypsin mix was added to the enzyme/compound mix, the plate was shaken for 60 seconds and placed into a Spectramax M5 microtiter plate reader. The development of fluorescence was monitored for 30 min. and the linear rate of the reaction was calculated. The IC50 was determined using Graph Pad Prism by a four parameter curve fit. The IC50 values obtained for the compounds of this invention are found in Table 1.

Assay [2] addresses HDAC1 (Homo sapiens (Human), UniProt Q13547). The experiment in a line: HDAC enzyme assay, HDAC1. How it is done:
as §1, §2

The target in assay [3] is HDAC3 (Homo sapiens (Human), UniProt O15379). The experiment in a line: HDAC enzyme assay, HDAC3. Here is the method: as §1, §2
Sequence of HDAC3 (O15379 whole entry): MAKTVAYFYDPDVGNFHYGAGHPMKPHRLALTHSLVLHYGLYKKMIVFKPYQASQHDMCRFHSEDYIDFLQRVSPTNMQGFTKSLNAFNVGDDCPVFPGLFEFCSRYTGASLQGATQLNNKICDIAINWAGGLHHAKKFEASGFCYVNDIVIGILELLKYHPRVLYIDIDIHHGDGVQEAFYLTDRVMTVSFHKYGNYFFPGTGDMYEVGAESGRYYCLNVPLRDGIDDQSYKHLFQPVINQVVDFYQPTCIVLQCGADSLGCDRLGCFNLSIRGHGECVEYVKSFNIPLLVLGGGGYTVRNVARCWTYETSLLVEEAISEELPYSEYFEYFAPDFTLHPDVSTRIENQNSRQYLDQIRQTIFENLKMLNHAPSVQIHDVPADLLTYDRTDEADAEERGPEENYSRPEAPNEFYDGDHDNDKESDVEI
Sequence of HDAC3 (Q9Y618 395-489 partner): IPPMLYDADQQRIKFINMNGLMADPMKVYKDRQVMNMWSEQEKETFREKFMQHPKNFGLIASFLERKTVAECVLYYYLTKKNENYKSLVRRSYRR

Sequence of HDAC2 (Q92769 whole entry): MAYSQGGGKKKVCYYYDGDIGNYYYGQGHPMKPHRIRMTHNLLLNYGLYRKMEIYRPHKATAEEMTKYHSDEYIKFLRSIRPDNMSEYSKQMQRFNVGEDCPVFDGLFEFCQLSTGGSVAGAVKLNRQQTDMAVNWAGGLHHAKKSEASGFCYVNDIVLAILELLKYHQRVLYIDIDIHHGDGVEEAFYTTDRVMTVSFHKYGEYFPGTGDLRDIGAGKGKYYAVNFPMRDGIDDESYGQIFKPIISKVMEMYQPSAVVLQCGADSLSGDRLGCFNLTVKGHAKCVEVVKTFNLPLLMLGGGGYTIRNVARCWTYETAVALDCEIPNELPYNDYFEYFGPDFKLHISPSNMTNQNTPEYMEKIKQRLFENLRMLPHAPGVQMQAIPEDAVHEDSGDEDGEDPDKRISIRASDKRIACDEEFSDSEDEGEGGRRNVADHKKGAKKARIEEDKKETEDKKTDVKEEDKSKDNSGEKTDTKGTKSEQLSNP
Sequence of HDAC1 (Q13547 whole entry): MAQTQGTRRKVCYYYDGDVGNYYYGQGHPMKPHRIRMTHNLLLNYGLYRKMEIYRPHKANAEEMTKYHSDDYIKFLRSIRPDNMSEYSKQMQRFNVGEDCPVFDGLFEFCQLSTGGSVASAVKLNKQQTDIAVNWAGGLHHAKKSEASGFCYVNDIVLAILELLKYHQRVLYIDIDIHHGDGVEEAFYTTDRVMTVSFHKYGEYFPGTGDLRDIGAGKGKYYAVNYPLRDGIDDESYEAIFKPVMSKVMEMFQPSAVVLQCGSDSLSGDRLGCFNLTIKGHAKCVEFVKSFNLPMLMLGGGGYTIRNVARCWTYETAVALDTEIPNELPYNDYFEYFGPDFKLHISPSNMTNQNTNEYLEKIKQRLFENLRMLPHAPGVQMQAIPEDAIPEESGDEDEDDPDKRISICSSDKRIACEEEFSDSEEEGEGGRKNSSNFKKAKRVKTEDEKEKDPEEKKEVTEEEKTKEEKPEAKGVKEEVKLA

Regarding `Nc1ccc(F)cc1NC(=O)c1cnc2c(C3CC3)c(N3CCNCC3)ccc2c1` [Compound A], the IC50 in assay [1] turned out to be 455 nM; in assay [2] it was 468 nM; in assay [3], 59 nM.
For `Nc1ccccc1NC(=O)c1cnc2c(C3CC3)c(N3CCNCC3)ccc2c1` [Compound B], the IC50 in assay [1] came to 372 nM; in assay [2], 355 nM; in assay [3], 53 nM.
Take `Nc1cc(F)ccc1NC(=O)c1ccc2c(c1)CC(=O)N2` [Compound C]: the IC50 is above 2000 nM in assay [1] and 269 nM in assay [3]. Besides, the “IC50 (nM) HDAC1” value in assay [2] is “No inhibition”.
On the same counts, the results for `Nc1cc(F)ccc1NC(=O)c1ccc2[nH]cnc2c1` [Compound D] are above 2000 nM, 282 nM and “No inhibition”.
In the case of `CN1CCN(c2ccc3cc(C(=O)Nc4ccc(F)cc4N)cnc3c2C2CC2)CC1` [Compound E], the IC50 in assay [1] amounted to 805 nM; in assay [2], 1610 nM; in assay [3], 68 nM.
With `Nc1cc(F)ccc1NC(=O)c1cnc2c(ccn2CCN2CCOCC2)c1` [Compound G], the half-maximal inhibitory concentration (IC50) is 1530 nM in assay [1], above 2000 nM in assay [2] and 193 nM in assay [3].
On the same counts, the results for `Nc1cc(F)ccc1NC(=O)c1ccc2c(cnn2CCN2CCOCC2)c1` [Compound H] are 1780 nM, above 2000 nM and 320 nM.
On the same counts, the results for `Nc1cc(F)ccc1NC(=O)c1cnc2c(C3CC3)c(N3CCNCC3)ccc2c1` [Compound I] are 589 nM, above 2000 nM and 57 nM.
For `Nc1cc(F)ccc1NC(=O)c1cnc2cc(N3CCNCC3)ccc2c1` [Compound J], the concentration for half-maximal inhibition (IC50) in assay [1] was above 2000 nM; in assay [3], 470 nM. In addition, in assay [2], the “IC50 (nM) HDAC1” value is recorded as “No inhibition”.
Take `Nc1ccccc1NC(=O)c1cc2ccc(N3CCNCC3)cc2cn1` [Compound K, N-(2-aminophenyl)-7-(piperazin-1-yl)isoquinoline-3-carboxamide]: the half-maximal inhibitory concentration (IC50) amounted to 271 nM in assay [1], 299 nM in assay [2] and 38 nM in assay [3].
As for `Nc1ccccc1NC(=O)c1cc2ccc(N3CCNCC3)c(C3CC3)c2cn1` [Compound L], the results for the half-maximal inhibitory concentration (IC50) in assay [1], in assay [2] and in assay [3] were 212 nM, 228 nM and 33 nM, respectively.
As for `Nc1cc(F)ccc1NC(=O)c1cc2ccc(N3CCNCC3)c(C3CC3)c2cn1` [Compound M], the IC50 in assay [1] was determined as 228 nM; in assay [2] it was 462 nM; in assay [3], 30 nM.
In the case of `Nc1cc(F)ccc1NC(=O)c1cnc2cc(N3CCNCC3)ccc2n1` [Compound N], in assay [1], the “IC50 (nM) HDAC2” value is given as “No inhibition”. Further, the “IC50 (nM) HDAC1” value in assay [2] is “No inhibition”. In assay [3], this molecule returned an IC50 of 1300 nM.
Consider `Nc1ccc(F)cc1NC(=O)c1cnc2cc(N3CCNCC3)ccc2n1` [Compound O], for which the half-inhibitory concentration (IC50) is above 2000 nM in assay [1], above 2000 nM in assay [2] and 675 nM in assay [3].
Take `Nc1ccc(F)cc1NC(=O)c1ccc2nc(N3CCNCC3)cnc2c1` [Compound P]: the IC50 in assay [1] was 1100 nM; in assay [2], above 2000 nM; in assay [3], 235 nM.
As to `Nc1ccc(F)cc1NC(=O)c1cnc2cc(N3CCNCC3)ccc2c1` [Compound Q, N-(2-amino-5-fluorophenyl)-7-(piperazin-1-yl)quinoline-3-carboxamide], the half-maximal inhibitory concentration (IC50) is above 2000 nM in assay [1], above 2000 nM in assay [2] and 308 nM in assay [3].
As to `Nc1ccc(F)cc1NC(=O)c1ccc2nc(N3CCNCC3)ccc2c1` [Compound R], the concentration for half-maximal inhibition (IC50) in assay [1] was 1340 nM; in assay [2] it was above 2000 nM; in assay [3], 315 nM.
